The structures appear in SMILES notation.

The test addresses Kappa-type opioid receptor (Homo sapiens, UniProt P41145). Kind of test: Inhibition of human kappa opioid receptor assessed as inhibition constant.

Chain of Kappa-type opioid receptor (P41145 whole entry): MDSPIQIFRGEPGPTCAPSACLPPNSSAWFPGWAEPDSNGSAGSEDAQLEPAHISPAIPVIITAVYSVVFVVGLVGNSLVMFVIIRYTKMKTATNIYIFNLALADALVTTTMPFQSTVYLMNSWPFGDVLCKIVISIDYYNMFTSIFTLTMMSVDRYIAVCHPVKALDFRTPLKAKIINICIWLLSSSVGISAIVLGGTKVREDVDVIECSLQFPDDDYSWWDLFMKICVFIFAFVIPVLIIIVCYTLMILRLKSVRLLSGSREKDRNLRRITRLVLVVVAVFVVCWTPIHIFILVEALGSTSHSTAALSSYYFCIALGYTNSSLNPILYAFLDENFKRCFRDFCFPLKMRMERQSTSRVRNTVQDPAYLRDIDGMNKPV

As for `COC(=O)[C@@H]1C[C@H](OC(C)=O)C(=O)[C@H]2[C@@]1(C)CC[C@H]1C(=O)O[C@H](C(=O)Nc3ccccc3)C[C@]21C`, the Ki was found to be 1000 nM.

What is called Ki is the dissociation constant of the complex between target and ligand, obtained from inhibition or displacement.

Source of the values: ChEMBL document CHEMBL5252547, “A review of salvinorin analogs and their kappa-opioid receptor activity” (Bioorg Med Chem Lett, 2018).
